Measured values published in patent US11491134B2, “Composition for inhibiting skin cell proliferation and/or anti-inflammation method for inhibiting skin cell proliferation and/or anti-inflammation and method for treating skin diseases and/or inflammatory diseases” (Industrial Technology Research Institute, priority 2019, dated 2022).

System: macrophages, RAW264.7 cells
Test: Inhibition rate on inflammation (anti-inflammatory activity): nitric oxide, Griess reagent, LPS-treated macrophages
Format: cell-based
Settings: Mus musculus; for inhibition at 1.5625 µM: apigenin 1.5625 μM/0.42 μg/mL; for inhibition at 3.125 µM: apigenin 3.125 μM/0.84 μg/mL; for inhibition at 6.25 µM: apigenin 6.25 μM/1.69 μg/mL; for inhibition at 12.5 µM: apigenin 12.5 μM/3.38 μg/mL; for inhibition at 25 µM: apigenin 25 μM/6.76 μg/mL; for inhibition at 50 µM: apigenin 50 μM/13.51 μg/mL; for inhibition at 0.625 µM: apigenin 0.625 μM/0.17 μg/mL; for inhibition at 1.25 µM: apigenin 1.25 μM/0.34 μg/mL; for inhibition at 2.5 µM: apigenin 2.5 μM/0.68 μg/mL; for inhibition at 5 µM: apigenin 5 μM/1.35 μg/mL; for inhibition at 10 µM: apigenin 10 μM/2.70 μg/mL; for inhibition at 0.3125 µM: apigenin 0.3125 μM/0.08 μg/mL
Procedure: Dimethyl sulfoxide (DMSO) was used as a solvent to prepare apigenin test samples with different concentrations and luteolin test samples with different concentrations. 9 batches of experiments were performed, which respectively were Batch 1 to Batch 9. There were 6 independent experiments in each batch of experiments. In each independent experiment, inhibition rate of an apigenin test sample with a specific concentration on inflammation and inhibition rate of a luteolin test sample with a specific concentration on inflammation were determined, and inhibition rate of a combination of an apigenin test sample with the said specific concentration and a luteolin test sample with the said specific concentration on inflammation was determined. Between the independent experiments, concentrations of apigenin test samples used were different, and concentrations of luteolin test samples used were also different, however, mole ratios or weight ratios of apigenin test samples to luteolin test samples were the same. Moreover, between the batches of experiments, mole ratios or weight ratios of apigenin test samples to luteolin test samples were different. 5×10^4 macrophages, RAW264.7 cells, were inoculated in a 96-well culture plate and then placed in a 37° C. and 5% CO2 incubator for culturing overnight. After overnight culture, the supernatant was removed, and lipopolysaccharide (LPS) (50 ng/mL) and a test sample was added to the cells (refer to Table 2, and the cells of the induced group were treated with lipopolysaccharide and dimethyl sulfoxide while the cells of the control group were only treated with dimethyl sulfoxide) for reaction for 24 hours. Thereafter, the supernatant of each well in the culture plate was transferred to a new culture plate and reacted with Griess reagent (Promega, Cat. No. G2930), respectively, and then the absorbance of each well of the culture plate was determined at 540 nm by a continuous wavelength microplate reader to evaluate the content of nitric oxide (NO), and anti-inflammatory activity was calculated through the following formula: Anti-inflammation=(Induced group540 nm−Experimental group540 nm)/(Induced group540 nm−Control group540 nm) In this experiment, the synergistic effects of apigenin and luteolin were evaluated by CalcuSyn software (BIOSOFT). CalcuSyn software is an analysis software which is commonly used to analyze the drug dosage effect of single drug and multiple drugs at present. CalcuSyn software can be used to analyze drug complex interactions and automatically quantify various phenomena such as synergism and inhibition. CalcuSyn software can process the data of individual drugs and combination drugs with constant-ratio or on-constant-ratio, and can evaluate the interaction of combination drugs by the combination index (CI) (Chou and Talalay, Adv. Enzyme Regul. 22:27-55 (1984) calculated by CalcuSyn software. Calculation formula for the combination index is shown in the following: Combination index=C1/IC1+C2/IC2 C1 and C2 are the respective concentrations of the first compound and the second compound at which the activity of achieving a specific physiological or medical purpose is 50% (or 75%, or 90%) when the first compound and the second compound are analyzed in combination; IC1 and IC2 are the respective concentrations at which the activity of achieving a specific physiological or medical purpose of the first compound and the second compound is 50% (or 75%, or 90%) when the first compound and the second compound are independently analyzed. […]

O=c1cc(-c2ccc(O)cc2)oc2cc(O)cc(O)c12 [Apigenin, apigenin]
inhibition at 1.5625 µM (RAW264.7, Batch 1): 1.1% | inhibition at 3.125 µM (RAW264.7, Batch 1): 7% | inhibition at 6.25 µM (RAW264.7, Batch 1): 26.3% | inhibition at 12.5 µM (RAW264.7, Batch 1): 48.1% | inhibition at 25 µM (RAW264.7, Batch 1): 78.7% | inhibition at 50 µM (RAW264.7, Batch 1): 99.9% | inhibition at 1.5625 µM (RAW264.7, Batch 2): 2% | inhibition at 3.125 µM (RAW264.7, Batch 2): 16.6% | inhibition at 6.25 µM (RAW264.7, Batch 2): 23.7% | inhibition at 12.5 µM (RAW264.7, Batch 2): 32.9% | inhibition at 25 µM (RAW264.7, Batch 2): 74.1% | inhibition at 50 µM (RAW264.7, Batch 2): 99.9% | inhibition at 1.5625 µM (RAW264.7, Batch 3): 0.1% | inhibition at 3.125 µM (RAW264.7, Batch 3): 0.9% | inhibition at 6.25 µM (RAW264.7, Batch 3): 20.2% | inhibition at 12.5 µM (RAW264.7, Batch 3): 57.9% | inhibition at 25 µM (RAW264.7, Batch 3): 93.8% | inhibition at 50 µM (RAW264.7, Batch 3): 99.5% | inhibition at 1.5625 µM (RAW264.7, Batch 4): 0.1% | inhibition at 3.125 µM (RAW264.7, Batch 4): 0.1% | inhibition at 6.25 µM (RAW264.7, Batch 4): 12% | inhibition at 12.5 µM (RAW264.7, Batch 4): 45.4% | inhibition at 25 µM (RAW264.7, Batch 4): 93.4% | inhibition at 50 µM (RAW264.7, Batch 4): 99.9% | inhibition at 1.5625 µM (RAW264.7, Batch 5): 3.4% | inhibition at 3.125 µM (RAW264.7, Batch 5): 11.2% | inhibition at 6.25 µM (RAW264.7, Batch 5): 27.9% | inhibition at 12.5 µM (RAW264.7, Batch 5): 59.5% | inhibition at 25 µM (RAW264.7, Batch 5): 92.7% | inhibition at 50 µM (RAW264.7, Batch 5): 97.6% | inhibition at 1.5625 µM (RAW264.7, Batch 6): 18.9% | inhibition at 3.125 µM (RAW264.7, Batch 6): 7.4% | inhibition at 6.25 µM (RAW264.7, Batch 6): 28.9% | inhibition at 12.5 µM (RAW264.7, Batch 6): 59.4% | inhibition at 25 µM (RAW264.7, Batch 6): 97.2% | inhibition at 50 µM (RAW264.7, Batch 6): 99.9% | inhibition at 0.625 µM (RAW264.7, Batch 7): 0.1% | inhibition at 1.25 µM (RAW264.7, Batch 7): 0.1% | inhibition at 2.5 µM (RAW264.7, Batch 7): 3.2% | inhibition at 5 µM (RAW264.7, Batch 7): 30% | inhibition at 10 µM (RAW264.7, Batch 7): 65.3% | inhibition at 20 µM (RAW264.7, Batch 7, apigenin 20 μM/5.40 μg/mL): 96% | inhibition at 0.3125 µM (RAW264.7, Batch 8): 0.1% | inhibition at 0.625 µM (RAW264.7, Batch 8): 0.1% | inhibition at 1.25 µM (RAW264.7, Batch 8): 0.1% | inhibition at 2.5 µM (RAW264.7, Batch 8): 0.6% | inhibition at 5 µM (RAW264.7, Batch 8): 20.6% | inhibition at 10 µM (RAW264.7, Batch 8): 51% | inhibition at 0.078 µM (RAW264.7, Batch 9, apigenin 0.078 μM/0.02 μg/mL): 2% | inhibition at 0.156 µM (RAW264.7, Batch 9, apigenin 0.156 μM/0.04 μg/mL): 0.2% | inhibition at 0.3125 µM (RAW264.7, Batch 9): 10.4% | inhibition at 0.625 µM (RAW264.7, Batch 9): 6.5% | inhibition at 1.25 µM (RAW264.7, Batch 9): 6.5% | inhibition at 2.5 µM (RAW264.7, Batch 9): 14.9%
